Measured values as given in patent US7132428B2, “Pyrazoloisoquinoline derivative as kinase inhibitors for the treatment of various disorders” (Aventis Pharmaceuticals Inc., priority 2003, dated 2006).

Assays:
[1] = system: human peripheral blood lymphocytes; assay: Cytotoxicity by LDH release, LPS-stimulated human peripheral blood lymphocytes; assay type: cell-based
Description: (§1) The pyrazoloisoquinoline derivatives according to the invention were tested for inhibitory activity against NIK in various in vitro assay systems. In this connection, human peripheral blood lymphocytes were preincubated for 1 h with different concentrations of the compounds and then stimulated for 24 h with LPS or IL1β. After that, a commercially obtainable ELISA test kit was used to measure the release of TNFα in the culture supernatant, and the IC50 for the given compound was determined. The cytotoxicity was measured by way of LDH release using a commercially obtainable test kit and the LD50 for the given compound was determined.

[2] = system: human peripheral blood lymphocytes; assay: Cytotoxicity by LDH release, IL1β-stimulated human peripheral blood lymphocytes; assay type: cell-based
Description: as §1

SMILES | Cytotoxicity LD50 [1] | Cytotoxicity LD50 [2] | melting point
c1ccc(-c2nc3c(-c4ccccc4)n[nH]c3c3ccccc23)cc1 [Example 1, 3,5-Diphenyl-1H-pyrazolo[4,3-c]isoquinoline] | >100 µM | >100 µM | 
COc1cccc(-c2nc3c(C)n[nH]c3c3ccccc23)c1 [Example 2, 5-(3-Methoxyphenyl)-3-methyl-1H-pyrazolo[4,3-c]isoquinoline] | >100 µM | >100 µM | 
Cc1n[nH]c2c1nc(-c1cccc(O)c1)c1ccccc12 [Example 3, 3-(3-Methyl-1H-pyrazolo[4,3-c]isoquinolin-5-yl)phenol] | >100 µM | >100 µM | 
CCc1n[nH]c2c1nc(-c1ccccc1)c1ccccc12 [Example 46, 5-phenyl-3-ethyl-1H-pyrazolo[4,3-c]isoquinoline] |  |  | 250 to 251 °C
CCc1n[nH]c2c1nc(-c1cccnc1)c1ccccc12 [Example 47, 3-Ethyl-5-(pyridin-3-yl)-1H-pyrazolo[4,3-c)isoquinoline] |  |  | 219 to 220 °C
Cc1n[nH]c2c1nc(-c1ccccc1)c1cc(Br)ccc12 [Example 62, 7-Bromo-3-methyl-5-phenyl-1H-pyrazolo[4,3-c]isoquinoline] |  |  | 299 to 300 °C
FC(F)(F)c1n[nH]c2c1nc(-c1ccccc1)c1ccccc12 [Example 75, 5-phenyl-3-trifluoromethyl-1H-pyrazolo[4,3-c]isoquinoline] |  |  | 264 to 265 °C
